According to patent publication US20240180822A1, “NON-NANOPARTICULATE APPLICATION FORMS OF MACROLIDES” (Nucleus Medical GmbH, priority 2021, published 2024):

Assay: saturation solubility of tacrolimus in different solvents (HPLC in the supernatant)
Assay type: physicochemical
Settings: all tested organic solvents
Experimental: Tacrolimus was dissolved in an organic solvent. Particularly, the saturation solubility of tacrolimus in different organic solvents was tested. Crystalline active ingredient was added to a defined amount of solvent at room temperature while stirring until an insoluble sediment was formed. After filtration, the concentration of active ingredient was quantified by HPLC in the supernatant.

C=CC[C@@H]1/C=C(\C)C[C@H](C)C[C@H](OC)[C@H]2O[C@@](O)(C(=O)C(=O)N3CCCC[C@H]3C(=O)O[C@H](/C(C)=C/[C@@H]3CC[C@@H](O)[C@H](OC)C3)[C@H](C)[C@@H](O)CC1=O)[C@H](C)C[C@@H]2OC [Tacrolimus]
solubility in organic solvents: soluble in all tested organic solvents
